Like-named read-outs stand apart in the source and are kept apart here.
Biological target: T1, fructose-1,6-bisphosphatase (FBPase) (Homo sapiens, UniProt P09467)
T1 sequence (P09467 1-338): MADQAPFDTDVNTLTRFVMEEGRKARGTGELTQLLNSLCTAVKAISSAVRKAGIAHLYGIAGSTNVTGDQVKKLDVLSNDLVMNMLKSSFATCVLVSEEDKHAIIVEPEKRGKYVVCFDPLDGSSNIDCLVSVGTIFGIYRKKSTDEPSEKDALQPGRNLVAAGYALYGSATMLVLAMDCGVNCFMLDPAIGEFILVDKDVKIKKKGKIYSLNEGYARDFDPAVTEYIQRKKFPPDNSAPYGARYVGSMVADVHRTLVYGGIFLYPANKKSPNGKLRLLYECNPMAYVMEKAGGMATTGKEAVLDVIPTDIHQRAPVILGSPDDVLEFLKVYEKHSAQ
Assay: FBPase inhibition assay (Taketa and Pogell): conversion of fructose-1,6-bisphosphate to fructose-6-phosphate, NADPH formation at 340 nm via coupled reactions
Format: biochemical
Procedure: The above compounds are assayed utilizing the procedure described by Taketa and Pogell (J. Biol. Chem. 240:651 (1965)), wherein the conversion of fructose-1,6-bisphosphate to fructose-6-phosphate is measured by monitoring the conversion of NADP to NADPH through two coupled reactions mediated by phosphoglucose isomerase and glucose-6-phosphate dehydrogenase. The increase in NADPH concentration during the course of the reactions was determined by measuring the increase in absorption at 340 nm. The controls used in the assay were adenosine monophosphate CAMP, 1(50 1.4±0.5 μM) and fructose 2.6-bisphosphate (1(50 2.9±0.9 μM). The results obtained of the above compounds are as follows (Table 2):
In Table 2, IC50 represents the concentration of inhibitor, which would result in 50% inhibition of FBPase activity. The Roman numbers designate the compounds' numbers as depicted in Formula A for which inhibition of FBPase activity has been measured.

[1] = concentration of inhibitor giving 50% inhibition of FBPase activity, read-out: IC50
[2] = controls used in the assay, read-out: 1(50 [IC50] of the assay controls

| SMILES | IC50 [1] [µM] | IC50 [2] [µM] |
| --- | --- | --- |
| Cc1ccc(C(C(=O)NCCc2ccc(O)cc2)N2C(=O)[C@@H]3Cc4ccccc4CN3C(=O)[C@@H]2C)cc1 (some centres unmarked) [Compound XVII, N-[2-(4-Hydroxy-phenyl)-ethyl]-2-(3-methyl-1,4-dioxo-1,3,4,6,11,11a-hexahydro-pyrazino[1,2-b]isoquinolin-2-yl)-2-p-tolyl-acetamide] | 37 |  |
| O=C(O)c1ccc(CNC(=O)C(c2ccc(Oc3ccccc3)cc2)N2C(=O)[C@@H]3Cc4ccccc4CN3C(=O)[C@@H]2CC2CCCCC2)cc1 (some centres unmarked) [Compound XIV, 4-{[2-(3-Cyclohexylmethyl-1,4-dioxo-1,3,4,6,11,11a-hexahydro-pyrazino [1,2-b]isoquinolin-2-yl)-2-(4-phenoxy-phenyl)-acetylamino]-methyl}-benzoicacid] | 24 |  |
| O=C(NCCc1ccc(O)cc1)C(c1ccc([N+](=O)[O-])cc1)N1C(=O)[C@H](Cc2ccccc2)NC(=O)[C@@H]1CC1CCCCC1 (some centres unmarked) [Compound VI, 2-(3-Benzyl-6-cyclohexylmethyl-2,5-dioxo-piperazin-1-yl)-N-[2-(4-hydroxy-phenyl)-ethyl]-2-(4-nitro-phenyl)-acetamide] | 24 |  |
| O=C(O)c1ccc(CNC(=O)C(c2ccc3c(c2)-c2ccccc2C3)N2C(=O)C3Cc4ccccc4CN3C(=O)C2Cc2ccccc2)cc1 (centres unmarked) [Compound XV, 4-{[2-(3-Benzyl-1,4-dioxo-1,3,4,6,11,11a-hexahydro-pyrazino[1,2-b]isoquinolin-2-yl)-2-(9H-fluoren-3-yl)-acetylamino]-methyl}-benzoic acid] | 27 |  |
| CCCCCC(C(=O)NCCc1ccc(O)cc1)N1C(=O)[C@@H]2Cc3ccccc3CN2C(=O)[C@@H]1Cc1ccc(O)cc1 (some centres unmarked) [Compound X, 2-[3-(4-Hydroxy-benzyl)-1,4-dioxo-1,3,4,6,11,11a-hexahydro-pyrazino[1,2-b]isoquinolin-2-yl]-heptanoic acid [2-(4-hydroxy-phenyl)-ethyl]-amide] | 40 |  |
| Nc1ncnc2c1ncn2[C@@H]1O[C@H](COP(=O)(O)O)[C@@H](O)[C@H]1O [adenosine monophosphate, reference compound] |  | 1.4 ± 0.5 |
| O=P(O)(O)OC[C@H]1O[C@@](CO)(OP(=O)(O)O)[C@@H](O)[C@@H]1O [fructose 2.6-bisphosphate, reference compound] |  | 2.9 ± 0.9 |
| CCCC(C(=O)NCCc1ccc(O)cc1)N1C(=O)[C@@H]2Cc3ccccc3CN2C(=O)[C@@H]1Cc1ccccc1 (some centres unmarked) [Compound IX, 2-(3-Benzyl-1,4-dioxo-1,3,4,6,11,11a-hexahydro-pyrazino[1,2-b]isoquinolin-2-yl)-pentanoic acid [2-(4-hydroxy-phenyl)-ethyl]-amide] | 34 |  |
| N#Cc1ccc(C(C(=O)NCCc2ccc(O)cc2)N2C(=O)[C@@H]3Cc4ccccc4CN3C(=O)[C@@H]2Cc2ccccc2)cc1 (some centres unmarked) [Compound IV, 2-(3-Benzyl-1,4-dioxo-1,3,4,6,11,11a-hexahydro-pyrazino[1,2-b]isoquinolin-2-yl)-2-(4-cyano-phenyl)-N-[2-(4-hydroxy-phenyl)-ethyl]-acetamide] | 15 |  |
| N#Cc1ccc(C(C(=O)NCCc2cccc(O)c2)N2C(=O)[C@@H]3Cc4ccccc4CN3C(=O)[C@@H]2CC2CCCCC2)cc1 (some centres unmarked) [Compound III, 2-(4-Cyano-phenyl)-2-(3-cyclohexylmethyl-1,4-dioxo-1,3,4,6,11,11a-hexahydro-pyrazino[1,2-b]isoquinolin-2-yl)-N-[2-(3-hydroxy-phenyl)-ethyl]-acetamide] | 8 |  |
| N#Cc1ccc(C(C(=O)NCCc2ccc(O)cc2)N2C(=O)[C@@H]3Cc4ccccc4CN3C(=O)[C@@H]2CC2CCCCC2)cc1 (some centres unmarked) [Compound II, 2-(4-Cyano-phenyl)-2-(3-cyclohexylmethyl-1,4-dioxo-1,3,4,6,11,11a-hexahydro-pyrazino[1,2-b]isoquinolin-2-yl)-N-[2-(4-hydroxy-phenyl)-ethyl]-acetamide] | 2.1 |  |
| CC(C)C[C@H]1C(=O)N2Cc3ccccc3C[C@H]2C(=O)N1C(C(=O)NCCc1ccc(O)cc1)c1ccc(C#N)cc1 (some centres unmarked) [Compound VII, 2-(4-Cyano-phenyl)-N-[2-(4-hydroxy-phenyl)-ethyl]-2-(3-isobutyl-1,4-dioxo-1,3,4,6,11,11a-hexahydro-pyrazino[1,2-b]isoquinolin-2-yl)-acetamide] | 30 |  |
| CC(C)CC(C(=O)NCCc1ccc(O)cc1)N1C(=O)[C@@H]2Cc3ccccc3CN2C(=O)[C@@H]1Cc1ccc(O)cc1 (some centres unmarked) [Compound XII, 2-[3-(4-Hydroxy-benzyl)-1,4-dioxo-1,3,4,6,11,11a-hexahydro-pyrazino[1,2-b]isoquinolin-2-yl]-4-methyl-pentanoic acid [2-(4-hydroxy-phenyl)-ethyl]-amide] | 54 |  |
| O=C(O)CCCCCNC(=O)C(c1ccc(Oc2ccccc2)cc1)N1C(=O)C(Cc2ccc([N+](=O)[O-])cc2)NC(=O)C1Cc1ccccc1 (centres unmarked) [Compound XVIII, 6-[2-[2-Benzyl-5-(4-nitro-benzyl)-3,6-dioxo-piperazin-1-yl]-2-(4-phenoxy-phenyl)-acetylamino]-hexanoic acid] | 95 |  |
| N#Cc1ccc(C(C(=O)NCCc2ccc(O)cc2)N2C(=O)C3Cc4ccc(O)cc4CN3C(=O)[C@@H]2CC2CCCCC2)cc1 (some centres unmarked) [Compound I, 2-(4-Cyano-phenyl)-2-(3-cyclohexylmethyl-8-hydroxy-1,4-dioxo-1,3,4,6,11,11a-hexahydro-pyrazino[1,2-b]isoquinolin-2-yl)-N-[2-(4-hydroxy-phenyl)-ethyl]-acetamide] | 0.37 |  |
| O=C(O)CCCCCNC(=O)C(c1ccc(Oc2ccccc2)cc1)N1C(=O)[C@H](Cc2ccccc2)NC(=O)[C@@H]1CC1CCCCC1 (some centres unmarked) [Compound XVI, 6-[2-(3-Benzyl-6-cyclohexylmethyl-2,5-dioxo-piperazin-1-yl)-2-(4-phenoxy-phenyl)-acetylamino]-hexanoic acid] | 34 |  |
| CC(C)C[C@H]1C(=O)N2Cc3ccccc3C[C@H]2C(=O)N1C(C(=O)NCCc1ccc(O)cc1)c1ccc([N+](=O)[O-])cc1 (some centres unmarked) [Compound V, N-[2-(4-Hydroxy-phenyl)-ethyl]-2-(3-isobutyl-1,4-dioxo-1,3,4,6,11,11a-hexahydro-pyrazino[1,2-b]isoquinolin-2-yl)-2-(4-nitro-phenyl)-acetamide] | 21 |  |
| CCCC(C(=O)NCCc1ccc(O)cc1)N1C(=O)[C@@H]2Cc3ccccc3CN2C(=O)[C@@H]1Cc1ccc(O)cc1 (some centres unmarked) [Compound XI, 2-[3-(4-Hydroxy-benzyl)-1,4-dioxo-1,3,4,6,11,11a-hexahydro-pyrazino[1,2-b]isoquinolin-2-yl]-pentanoic acid [2-(4-hydroxy-phenyl)-ethyl]-amide] | 45 |  |
| NC(=O)c1ccc(C(C(=O)NCCc2ccc(F)cc2)N2C(=O)[C@@H]3Cc4ccccc4CN3C(=O)[C@@H]2CC2CCCCC2)cc1 (some centres unmarked) [Compound VIII, 4-{(3-Cyclohexylmethyl-1,4-dioxo-1,3,4,6,11,11a-hexahydro-pyrazino[1,2-b]isoquinolin-2-yl)-[2-(4-fluoro-phenyl)-ethylcarbamoyl]-methyl}-benzamide] | 32 |  |
| N#Cc1ccc(C(C(=O)NCc2ccc(C(=O)N3CCOCC3)cc2)N2C(=O)[C@@H]3Cc4ccccc4CN3C(=O)[C@@H]2CC2CCCCC2)cc1 (some centres unmarked) [Compound XIII, 2-(4-Cyano-phenyl)-2-(3-cyclohexylmethyl-1,4-dioxo-1,3,4,6,11,11a-hexahydro-pyrazino[1,2-b]isoquinolin-2-yl)-N-[4-(morpholine-4-carbonyl)-benzyl]-acetamide] | 57 |  |

Reference: US6107274A, “Piperazines as inhibitors of fructose-1,6-bisphosphatase (FBPase)” (Ontogen Corporation, priority 1999, dated 2000)
